Measured values: publication PMC9250534, “Synthesis and direct assay of large macrocycle diversities by combinatorial late-stage modification at picomole scale” (Nature Communications, 2022)
Numbered stars: 1 amine (or outer) side, 2 acyl side, 3 side chain; on linkers, the order of the positions; unused ones are H or OH. Bridge positions count the residues as written; N and C are the ends. Square brackets hold non-standard residues; d marks the D form. Peptide text beside a SMILES is read from it. * marks the point of attachment. 2Thenoyl(5-Cl) = O=C(c1ccc(Cl)s1)*; Cysteamide = C(CS[*:3])N[*:1]; Orn = NCCC[CH](N)C(=O)O; Dap = NC[CH](N)C(=O)O; Mpa = O=C(O)CCS

Biological target: T1, thrombin (Homo sapiens, UniProt P00734)
T1 construct: consists of two polypeptide chains of 36 (light chain) and 259 amino acid
Experiment: Thrombin inhibition screen of crude macrocycle reactions (residual thrombin activity, fluorogenic substrate Z-Gly-Gly-Arg-AMC)
Format: biochemical
Conditions: 10 µM macrocycle concentration, macrocycles containing acid 14, crude reaction; for % thrombin activity, Repeat screen: replicate reaction and screen
In short: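 Each crude macrocycle (10 μM) was preincubated 10 min at room temperature with thrombin (2 nM final) in Tris-Cl pH 7.4 containing NaCl, MgCl2, CaCl2, 0.1% BSA, 0.01% Triton X-100 and 0.6% DMSO. Z-Gly-Gly-Arg-AMC (50 μM final) was then added. Inhibition came from fluorescence slopes relative to DMSO-only controls.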

| Structure (SMILES) | % thrombin activity, Original screen [%] | % thrombin activity, Repeat screen [%] | % thrombin activity, Original screen (listed as X D2 B5 y) [%] | % thrombin activity, Repeat screen (listed as X D2 B5 y) [%] | % thrombin activity, Original screen (listed as X D3 B1 V) [%] | % thrombin activity, Repeat screen (listed as X D3 B1 V) [%] |
| --- | --- | --- | --- | --- | --- | --- |
| NC(=O)CCC1NC(=O)C2CC(NC(=O)c3ccc(Cl)s3)CN2C(=O)C2(CC2)CNC(=O)CCSSCCNC1=O (centres unmarked) [X B6 D5 Q] | 109.4 | 121.6 | – | – | – | – |
| CC(C)C[C@@H]1NC(=O)C2(CC2)CNC(=O)CCSSCCNC(=O)[C@H](CCCNC(=O)c2ccc(Cl)s2)NC1=O [X B6 L D2] | 60.0 | 43.4 | – | – | – | – |
| NC(=O)CC[C@@H]1NC(=O)C2(CC2)CNC(=O)CCSSCCNC(=O)[C@H](CCCNC(=O)c2ccc(Cl)s2)NC1=O [X B6 Q D2] | 99.3 | 95.8 | – | – | – | – |
| O=C1CCSSCCNC(=O)[C@H](CNC(=O)c2ccc(Cl)s2)NC(=O)[C@H](Cc2ccc(O)cc2)NC(=O)C2(CC2)CN1 [X B6 Y D3] | 68.6 | 63.8 | – | – | – | – |
| O=C1CCSSCCNC(=O)[C@H](CNC(=O)c2ccc(Cl)s2)NC(=O)[C@@H](Cc2ccccc2)NC(=O)C2(CC2)CN1 [X B6 f D3] | 49.0 | 42.0 | – | – | – | – |
| O=C1CCSSCCNC(=O)[C@@H](CNC(=O)c2ccc(Cl)s2)NC(=O)[C@@H](Cc2c[nH]c3ccccc23)NC(=O)C2(CC2)CN1 [X B6 w D4] | 102.8 | 106.2 | – | – | – | – |
| C[C@H]1NC(=O)[C@@H]2CCCN2C(=O)[C@H](CCCCNC(=O)c2ccc(Cl)s2)NC(=O)CCSSCCNC1=O [X D1 B1 a] ([Mpa]K(2Thenoyl(5-Cl))P[dA]-Cysteamide; disulfide 1-C) | 96.4 | 103.7 | – | – | – | – |
| O=C1CCSSCCNC(=O)C(CO)NC(=O)c2ccc(cc2)CNC(=O)C(CCCCNC(=O)c2ccc(Cl)s2)N1 (centres unmarked) [X D1 B3 S] | 99.2 | 103.2 | – | – | – | – |
| O=C1CCSSCCNC(=O)[C@@H](Cc2ccc(O)cc2)NC(=O)[C@H]2CCCN(C2)C(=O)[C@H](CCCCNC(=O)c2ccc(Cl)s2)N1 [X D1 B4 y] | 99.9 | 100.1 | – | – | – | – |
| O=C1CCSSCCNC(=O)[C@H]2CCCN(C2)C(=O)[C@H](Cc2ccccc2)NC(=O)[C@H](CCCCNC(=O)c2ccc(Cl)s2)N1 [X D1 F B4] | 99.6 | 102.4 | – | – | – | – |
| O=C1CCSSCCNC(=O)C2(CC2)CNC(=O)[C@H](Cc2c[nH]cn2)NC(=O)[C@H](CCCCNC(=O)c2ccc(Cl)s2)N1 [X D1 H B6] | 105.8 | 107.1 | – | – | – | – |
| CCC(C)C1NC(=O)C(CCCCNC(=O)c2ccc(Cl)s2)NC(=O)CCSSCCNC(=O)C2(CC2)CNC1=O (centres unmarked) [X D1 I B6] | 91.0 | 93.6 | – | – | – | – |
| NC(=O)CCC1NC(=O)C(CCCCNC(=O)c2ccc(Cl)s2)NC(=O)CCSSCCNC(=O)C2CCCN2C1=O (centres unmarked) [X D1 Q B1] ([Mpa]K(2Thenoyl(5-Cl))QP-Cysteamide; disulfide 1-C; configuration not given here) | 102.2 | 105.2 | – | – | – | – |
| O=C1CCSSCCNC(=O)C2(CC2)CNC(=O)[C@H](CO)NC(=O)[C@H](CCCCNC(=O)c2ccc(Cl)s2)N1 [X D1 S B6] | 97.6 | 98.2 | – | – | – | – |
| CC[C@H](C)[C@@H]1NC(=O)CCNC(=O)[C@H](CCCNC(=O)c2ccc(Cl)s2)NC(=O)CCSSCCNC1=O [X D2 B2 I] | 101.0 | 92.2 | – | – | – | – |
| O=C1CCSSCCNC(=O)[C@H](Cc2cnc[nH]2)NC(=O)c2cccc(c2)CNC(=O)[C@H](CCCNC(=O)c2ccc(Cl)s2)N1 [X D2 B5 H] | 93.0 | 94.7 | – | – | – | – |
| O=C1CCSSCCNC(=O)[C@H](Cc2ccc(O)cc2)NC(=O)c2cccc(c2)CNC(=O)[C@H](CCCNC(=O)c2ccc(Cl)s2)N1 [X D2 B5 Y] | 78.2 | 66.2 | 82.3 | 75.1 | – | – |
| O=C1CCSSCCNC(=O)c2cccc(c2)CNC(=O)[C@H](Cc2ccccc2)NC(=O)[C@H](CCCNC(=O)c2ccc(Cl)s2)N1 [X D2 F B5] | 95.3 | 93.4 | – | – | – | – |

| Structure (SMILES) | % thrombin activity, Original screen [%] | % thrombin activity, Repeat screen [%] | % thrombin activity, Original screen (listed as X D2 B5 y) [%] | % thrombin activity, Repeat screen (listed as X D2 B5 y) [%] | % thrombin activity, Original screen (listed as X D3 B1 V) [%] | % thrombin activity, Repeat screen (listed as X D3 B1 V) [%] |
| --- | --- | --- | --- | --- | --- | --- |
| CCC(C)C1NC(=O)C(CCCNC(=O)c2ccc(Cl)s2)NC(=O)CCSSCCNC(=O)C2CCCN2C1=O (centres unmarked) [X D2 I B1] ([Mpa][Orn](2Thenoyl(5-Cl))IP-Cysteamide; disulfide 1-C; configuration not given here) | 96.9 | 90.4 | – | – | – | – |
| CC[C@H](C)[C@@H]1NC(=O)[C@H](CCCNC(=O)c2ccc(Cl)s2)NC(=O)CCSSCCNC(=O)CCNC1=O [X D2 I B2] | 94.1 | 96.8 | – | – | – | – |
| CC(C)C[C@@H]1NC(=O)[C@H](CCCNC(=O)c2ccc(Cl)s2)NC(=O)CCSSCCNC(=O)[C@H]2CCCN(C2)C1=O [X D2 L B4] | 98.3 | 94.7 | – | – | – | – |
| O=C1CCNC(=O)[C@H](CO)NC(=O)[C@H](CCCNC(=O)c2ccc(Cl)s2)NC(=O)CCSSCCN1 [X D2 S B2] | 105.4 | 107.4 | – | – | – | – |
| O=C1CCSSCCNC(=O)C2CCCN2C(=O)C(Cc2ccc(O)cc2)NC(=O)C(CCCNC(=O)c2ccc(Cl)s2)N1 (centres unmarked) [X D2 Y B1] ([Mpa][Orn](2Thenoyl(5-Cl))YP-Cysteamide; disulfide 1-C; configuration not given here) | 96.4 | 96.3 | – | – | – | – |
| C[C@H]1NC(=O)[C@H](CCCNC(=O)c2ccc(Cl)s2)NC(=O)CCSSCCNC(=O)CCNC1=O [X D2 a B2] | 108.5 | 109.5 | – | – | – | – |
| CC(C)C1NC(=O)C2CCCN2C(=O)C(CNC(=O)c2ccc(Cl)s2)NC(=O)CCSSCCNC1=O (centres unmarked) [X D3 B1 v] ([Mpa][Dap](2Thenoyl(5-Cl))PV-Cysteamide; disulfide 1-C; configuration not given here) | 92.1 | 95.4 | – | – | 98.0 | 99.7 |
| O=C1CCSSCCNC(=O)[C@H](Cc2ccccc2)NC(=O)CCNC(=O)[C@H](CNC(=O)c2ccc(Cl)s2)N1 [X D3 B2 F] | 56.1 | 56.2 | – | – | – | – |
| O=C1CCSSCCNC(=O)C(Cc2c[nH]cn2)NC(=O)CCNC(=O)C(CNC(=O)c2ccc(Cl)s2)N1 (centres unmarked) [X D3 B2 H] | 78.9 | 71.1 | – | – | – | – |
| NC(=O)CCC1NC(=O)CCNC(=O)C(CNC(=O)c2ccc(Cl)s2)NC(=O)CCSSCCNC1=O (centres unmarked) [X D3 B2 Q] | 91.4 | 92.1 | – | – | – | – |
| O=C1CCSSCCNC(=O)[C@H](Cc2c[nH]c3ccccc23)NC(=O)c2ccc(cc2)CNC(=O)[C@H](CNC(=O)c2ccc(Cl)s2)N1 [X D3 B3 W] | 68.7 | 73.3 | – | – | – | – |
| O=C1CCSSCCNC(=O)[C@@H](Cc2ccccc2)NC(=O)c2ccc(cc2)CNC(=O)[C@H](CNC(=O)c2ccc(Cl)s2)N1 [X D3 B3 f] | 77.4 | 84.4 | – | – | – | – |
| O=C1CCSSCCNC(=O)[C@H](Cc2ccccc2)NC(=O)[C@H]2CCCN(C2)C(=O)[C@H](CNC(=O)c2ccc(Cl)s2)N1 [X D3 B4 F] | 66.8 | 62.9 | – | – | – | – |
| NC(=O)CCC1NC(=O)C2CCCN(C2)C(=O)C(CNC(=O)c2ccc(Cl)s2)NC(=O)CCSSCCNC1=O (centres unmarked) [X D3 B4 Q] | 94.4 | 90.2 | – | – | – | – |
| O=C1CCSSCCNC(=O)[C@H](Cc2ccc(O)cc2)NC(=O)C2(CC2)CNC(=O)[C@H](CNC(=O)c2ccc(Cl)s2)N1 [X D3 B6 Y] | 70.6 | 70.5 | – | – | – | – |
| CC[C@H](C)[C@@H]1NC(=O)[C@H](CNC(=O)c2ccc(Cl)s2)NC(=O)CCSSCCNC(=O)c2ccc(cc2)CNC1=O [X D3 I B3] | 87.6 | 88.8 | – | – | – | – |
| NC(=O)CC[C@@H]1NC(=O)[C@H](CNC(=O)c2ccc(Cl)s2)NC(=O)CCSSCCNC(=O)C2(CC2)CNC1=O [X D3 Q B6] | 72.8 | 67.3 | – | – | – | – |
